Measured values taken from US20030050306A1, “Novel heteroaryl derivatives, their preparation and use” (H. Lundbeck A/S, priority 1999, published 2003).
Counter-ions that a name gives are not always drawn.

With Clc1cccc(Cl)c1SCCN1CCN(c2cccc3c2OCCO3)CC1 (as salt: oxalate) [Compound 3d, 1-[2-(2,6-Dichloro-phenylsulfanyl)-ethyl]-4-(2,3-dihydro-benzo[1,4]dioxin-5-yl)-piperazine] the melting point was 188 to 191 °C (dec.).

N#Cc1ccc(N2CCN(CCCOc3ccc(F)cc3Br)CC2)c2c1OCCO2 (as salt: oxalate) [Compound 6b, 8-{4-[3-(2-Bromo-4-fluoro-phenoxy)-propyl]-piperazin-1-yl}-2,3-dihydro-benzo[1,4]dioxine-5-carbonitrile] gave a melting point of 152 to 154 °C.
